Laboratory results reported in patent publication US10588888B2, “CNS-accessible pharmacological chaperones for treatment of acid β-glucosidase-related disease states” (Children's Hospital Medical Center, priority 2017, dated 2020).
Substitutions are numbered along the chain they refer to. Read-outs that look alike come from different tables or passages of the source.

What was measured:
Mutant GCase (V394L) = biological target: T1, Mutant GCase (V394L) (Mus musculus, UniProt P17439, V412L); assay: GCase activity in mutant GCase fibroblasts treated with compounds; assay type: cell-based; details: for GCase activity (in words): 4L/4L and 4L;C* fibroblasts, 10 μM, vs untreated cells
T1 construct: Fibroblast cells from wild type (WT) and GCase mutant mice; endogenous in cells; host or cells: mouse fibroblasts from V394L/V394L (4L/4L) and 4L/4L; saposin C-/- (4L;C*) mice
T1 sequence (P17439 20-515 V412L): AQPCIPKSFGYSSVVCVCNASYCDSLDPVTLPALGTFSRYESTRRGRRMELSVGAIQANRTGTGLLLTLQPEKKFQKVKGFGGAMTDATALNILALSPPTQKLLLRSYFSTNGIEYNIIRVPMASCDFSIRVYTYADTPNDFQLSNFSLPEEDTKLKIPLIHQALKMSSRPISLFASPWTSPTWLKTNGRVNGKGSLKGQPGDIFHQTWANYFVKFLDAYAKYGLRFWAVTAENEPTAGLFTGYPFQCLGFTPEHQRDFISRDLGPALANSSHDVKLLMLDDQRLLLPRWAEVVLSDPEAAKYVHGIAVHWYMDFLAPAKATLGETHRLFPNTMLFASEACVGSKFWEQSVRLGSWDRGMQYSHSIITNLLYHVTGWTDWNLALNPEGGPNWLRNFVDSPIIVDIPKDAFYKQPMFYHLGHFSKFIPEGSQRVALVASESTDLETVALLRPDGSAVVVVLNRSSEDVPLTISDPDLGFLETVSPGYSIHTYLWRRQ
Method: (§1) FIG. 1. Screen of small molecules with NCGC607 as a positive control. Mutant GCase (V394L) fibroblasts were incubated with small molecules for 5 days at various concentration.
(§2) Fibroblast cells from wild type (WT) and GCase mutant mice, homozygous V394L/V394L (4L/4L) and 4L/4L/with saposin C−/− (4L;C*) were cultured in 10% Bovine Calf Serum/Dulbecco's Modified Eagle's medium (DMEM). The compounds were dissolved in Dimethyl sulfoxide (DMSO) at 5 mM as a stock solution and stored at −20° C. For cell treatment, the stock was diluted with DMEM and added to cells. The cells were incubated with the compounds for 5 days and changed with fresh media with the compound every two days.
(§3) Cell pellets were collected and washed with Phosphate-buffered saline twice. The cell pellets were homogenized in 1% Na-taurocholate/1% Triton X-100 (Tc/Tx). GCase activity was determined fluorometrically with 4MU-Glc as substrate in 0.25% Tc/Tx diluted in 0.1M citrate phosphate (CP) buffer (pH 5.6) as described. Protein concentrations of cells and tissues were determined by BCA assay using BSA as standard.

WT GCase [1] = biological target: T2, WT GCase (Mus musculus, UniProt P17439); assay: GCase activity in WT fibroblasts treated with compounds; assay type: cell-based; details: 5 days, 10 μM, vs untreated cells
T2 construct: Fibroblast cells from wild type (WT) and GCase mutant mice; endogenous in cells; host or cells: wild-type mouse fibroblasts
T2 sequence (P17439 20-515): T1 sequence (P17439 20-515 V412L) with L393V
Method: as §2, §3

[2] = biological target: T3, mutant V394L GCase protein (Mus musculus, UniProt P17439, V412L); assay: Immunoblot of GCase protein in mutant fibroblasts; assay type: cell-based; details: 4L/4L and 4L;C* fibroblasts, 10 μM, 5 days, vs untreated cells
T3 construct: Fibroblast cells from wild type (WT) and GCase mutant mice; endogenous in cells; host or cells: mouse fibroblasts from V394L/V394L (4L/4L) and 4L/4L; saposin C-/- (4L;C*) mice
T3 sequence (P17439 20-515 V412L): T1 sequence (P17439 20-515 V412L)
Method: as §2
(§4) Cell pellets were collected and washed with Phosphate-buffered saline twice. The pellets were suspended in M-per lysis buffer. Freeze and thaw twice to break down the cell membrane. Protein concentration was determined by the bicinchoninic acid assay. The proteins were resolved on 4-12% NuPAGE gel (Invitrogen) and were transferred to PVDF membrane using iBlot 2 gel transfer device (Life Technologies) following manufactural instruction. The blotted membranes were incubated with Goat anti-mouse GCase (1:1000) in 1.5% BSA/1.5% milk/PBS buffer overnight at 4° C. followed by IRdye Donkey anti-Goat 1:5000. The signals were detected using LI-COR detection system according to manufacturer's instruction.

WT GCase [3] = biological target: T2, WT GCase; assay: Immunoblot of GCase protein in WT fibroblasts; assay type: cell-based; details: 10 μM, 5 days, vs untreated cells
Method: as §2, §4

[4] = biological target: T4, GCase (4L/4L and 4L;C* fibroblasts) (Mus musculus, UniProt P17439, V412L); assay: Immunofluorescence co-localization of GCase and Lamp1 in mutant fibroblasts; assay type: cell-based; details: vs untreated cells
T4 construct: Fibroblast cells from wild type (WT) and GCase mutant mice; endogenous in cells; host or cells: mouse fibroblasts from V394L/V394L (4L/4L) and 4L/4L; saposin C-/- (4L;C*) mice
T4 sequence (P17439 20-515 V412L): T1 sequence (P17439 20-515 V412L)
Method: (§5) FIG. 5. Increased GCase protein in lysosomes of mouse fibroblasts treated with M chaperone compounds. (A) GCase (green) was co-stained with lysosomal marker, Lamp1 (red). Co-localization of GCase and Lamp1 (orange) indicates lysosomal localization of GCase.
as §2
(§6) The cells grown on the chamber slides were fixed in 4% paraformaldehyde for 30 mins, followed by washing twice in Phosphate-buffered saline. The cells were permeablized with 0.3% Triton X-100 in Phosphate-buffered saline and washed with Phosphate-buffered saline for three times. After blocking for 30 min in 1.5% BSA/0.5% gelatin diluted in Phosphate-buffered saline, primary antibody, mouse anti-Lamp1 (1:200) and goat anti-mGCase (1:200) were applied to the cells and incubated overnight at 4° C. The signals were detected using Donkey anti-goat-FITC (1:500) and goat anti-mouse-Texas Red (1:500) to the cognate primary antibody. The stained cells were mounted with antifade containing DAPI.

GCase (WT fibroblasts) = biological target: T5, GCase (WT fibroblasts) (Mus musculus, UniProt P17439); assay: Immunofluorescence co-localization of GCase and Lamp1 in WT fibroblasts; assay type: cell-based; details: vs untreated cells
T5 construct: Fibroblast cells from wild type (WT) and GCase mutant mice; endogenous in cells; host or cells: wild-type mouse fibroblasts
T5 sequence (P17439 20-515): T1 sequence (P17439 20-515 V412L) with L393V
Method: as §5, §2, §6

MDR1 (P-gp) = assay: MDR1-MDCK assay, blood-brain-barrier penetration potential; assay type: in vitro ADME; details: dog; for Papp A→B at 120 min, 5 μM: MDCK-MDR1, pH 7.4, A to B; for Papp B→A at 120 min, 5 μM: MDCK-MDR1, pH 7.4, B to A
Method: (§7) MDR1-MDCK cell monolayers were grown to confluence on collagen-coated, microporous membranes in 12-well assay plates. The permeability assay buffer was Hanks' balanced salt solution containing 10 mM HEPES and 15 mM glucose at a pH of 7.4. The buffer in the receiver chamber also contained 1% bovine serum albumin. The dosing solution concentration was 5 μM of test article in the assay buffer. Cell monolayers were dosed on the apical side (A-to-B) or basolateral side (B-toA) and incubated at 37° C. with 5% CO2 in a humidified incubator. Samples were taken from the donor and receiver chambers at 120 minutes. Each determination was performed in duplicate. The flux of lucifer yellow was also measured post-experimentally for each monolayer to ensure no damage was inflicted to the cell monolayers during the flux period. All samples were assayed by LC-MS/MS using electrospray ionization.
(§8) The apparent permeability (Papp) and percent recovery were calculated as follows: Papp=(dCr/dt)×Vr/(A×CA) Percent Recovery=100×((Vr×Cr^final)+(Vd×Cd^final))/(Vd×CN)
(§9) Where, dCr/dt is the slope of the cumulative concentration in the receiver compartment versus time in μM s^−1; Vr is the volume of the receiver compartment in cm^3; Vd is the volume of the donor compartment in cm^3; A is the area of the insert (1.13 cm^2 for 12-well); CA is the average of the nominal dosing concentration and the measured 120 minute donor concentration in μM; CN is the nominal concentration of the dosing solution in μM; Cr final is the cumulative receiver concentration in M at the end of the incubation period; Cd final is the concentration of the donor in M at the end of the incubation period.
(§10) Efflux ratio (ER) is defined as Papp (B-to-A)/Papp (A-to-B).

[5] = system: MDR1-MDCK cell monolayers; assay: as above; assay type: in vitro ADME; details: MDR1-MDCK
Method: as §7, §8, §9, §10

MDR1 = assay: as above; assay type: in vitro ADME; details: dog, 5 μM, 120 minutes
Method: as §7, §8, §9, §10

Recombinant GCase = biological target: T6, Recombinant GCase (Homo sapiens, UniProt P04062); assay: Recombinant GCase activity with or without compound; assay type: biochemical; details: for Inhibition of GCase (in words): recombinant GCase
T6 sequence (P04062 40-536): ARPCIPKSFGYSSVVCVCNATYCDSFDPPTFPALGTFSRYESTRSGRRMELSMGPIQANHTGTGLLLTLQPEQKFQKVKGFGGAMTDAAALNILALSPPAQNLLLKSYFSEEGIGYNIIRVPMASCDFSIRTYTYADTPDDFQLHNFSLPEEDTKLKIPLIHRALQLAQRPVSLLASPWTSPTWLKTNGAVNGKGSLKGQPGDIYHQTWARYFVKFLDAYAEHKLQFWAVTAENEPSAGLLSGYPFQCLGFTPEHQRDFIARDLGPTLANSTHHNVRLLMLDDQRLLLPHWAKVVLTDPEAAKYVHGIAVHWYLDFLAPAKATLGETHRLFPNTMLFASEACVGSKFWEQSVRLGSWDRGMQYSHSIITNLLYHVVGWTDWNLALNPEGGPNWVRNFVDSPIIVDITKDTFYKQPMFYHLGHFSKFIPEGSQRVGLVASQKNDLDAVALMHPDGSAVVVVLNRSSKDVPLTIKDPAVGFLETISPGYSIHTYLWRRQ
Method: FIG. 2. […] Recombinant GCase was incubated with or without compound 216 at various concentration and GCase activity was determined.

[6] = system: Mutant GCase (V394L) fibroblasts; assay: Toxicity in small molecule screen on mutant GCase fibroblasts; assay type: cell-based, mouse; details: 5 days, various concentration
Method: as §1, §2

[7] = average, 5 μM, read-out: Papp AVE
[8] = replicate 1, 5 μM, read-out: Papp R1
[9] = replicate 2, 5 μM, read-out: Papp R2

Row | GCase activity (in words) (Mutant GCase (V394L); 5 days) | GCase activity (in words) (WT GCase [1]) | GCase protein levels (in words) [2] | GCase protein levels (in words) (WT GCase [3]) | Lysosomal localization of GCase protein (Pearson index, in words) [4] | Lysosomal localization of GCase protein (Pearson index, in words) (GCase (WT fibroblasts)) | SMILES | further results
1 | Increased | Increased | increased | increased | enhanced | enhanced | O=C(COc1ccccc1C(=O)NCC1CCCO1)Nc1ccc(Br)cc1 (stereo in doubt) [Compound 6, 2-((4-bromophenylcarbamoyl)methoxy)-N(((R)tetrahydrofuran-2-yl)methyl)benzamide] | 
2 | Increased | Increased | increased | increased | enhanced | enhanced | O=C(COc1ccccc1C(=O)NC[C@@H]1CCCO1)Nc1ccc(Br)cc1 [Compound 8, 2-((4-bromophenylcarbamoyl)methyoxy)-N—(((S)-tetrahydrofuran-2-yl)methyl)benzamide] | Activity in the mutant GCase fibroblasts assay (comparison of stereoisomers) (Mutant GCase (V394L); mutant GCase fibroblasts): better activity than Compound 6; Papp A→B at 120 min, 5 μM (MDR1 (P-gp); [7]): 32.1 ×10⁻⁶ cm/s; Papp A→B at 120 min, 5 μM (MDR1 (P-gp); [8]): 33.4 ×10⁻⁶ cm/s; Papp A→B at 120 min, 5 μM (MDR1 (P-gp); [9]): 30.8 ×10⁻⁶ cm/s; Papp B→A at 120 min, 5 μM (MDR1 (P-gp); [7]): 34.4 ×10⁻⁶ cm/s; Papp B→A at 120 min, 5 μM (MDR1 (P-gp); [8]): 31.8 ×10⁻⁶ cm/s; Papp B→A at 120 min, 5 μM (MDR1 (P-gp); [9]): 37 ×10⁻⁶ cm/s; efflux ratio at 120 min, 5 μM (MDR1 (P-gp); MDCK-MDR1, pH 7.4, Papp (B-to-A)/Papp (A-to-B), P-gp): 1.1; Brain Penetration Classification [5]: High; Brain Penetration Classification ([5]; listed as #8): high; recovery at 120 min, 5 μM (MDR1; MDCK-MDR1, pH 7.4, A to B): 77%; recovery at 120 min, 5 μM (MDR1; MDCK-MDR1, pH 7.4, B to A): 86%
3 | Increased | Increased | increased | increased | enhanced | enhanced | O=C(COc1ccccc1C(=O)NCC1CCCO1)Nc1ccc(Br)cc1 (centres unmarked) [Compound 216] | Inhibition of GCase (in words) (Recombinant GCase): non-inhibitory; AC50 (Recombinant GCase; recombinant GCase incubated with compound at various concentration, read-out: AC50, activation effect on GCase): 10.1 µM; Inhibition of GCase (in words) (Recombinant GCase; listed as compound 216): did not inhibit; Activation function on GCase compared to NCGC607 (Mutant GCase (V394L); V394L fibroblasts, 5 days, various concentration): superior; Toxicity compared to 607 [6]: reduced toxicity
